# Test results reported in patent publication US10047080B2, “(R)-2-methyl-piperazine derivatives as CXCR3 receptor modulators” (Idorsia Pharmaceuticals Ltd., priority 2015, dated 2018).
# Legend:
# Format in all cases: cell-based
# [1] = molecular target: human CXCR3A (Homo sapiens (Human), UniProt P49682); assay: FLIPR assay (calcium flux, CXCL10-induced); conditions: CHO-K1 cells expressing human CXCR3A coupled to Galpha(16); CXCL10 agonist at 20 nM
# Procedure: The bioactivity of compounds is tested in a fluorometric imaging plate reader (FLIPR: Molecular Devices) using engineered CHO-K1 cells expressing the human CXCR3A (GenBank: AY242128) coupled to a G protein (Galpha(16)). Cells are plated the day prior to bioassay in F12 medium supplemented with 10% FBS and G418 and hygromycin antibiotics to maintain recombinant selection. At the day of bioassay, cells are washed and dye loaded for one hour with Fluo-4-AM (Invitrogen) in Hanks Balanced Salt Solution (Invitrogen), buffered with 20 mM Hepes at pH 7.4 and sodium bicarbonate (0.038%), containing 5 mM probenecid. This buffer, but lacking the dye and containing probenecid at a concentration of 2.5 mM, is also used for washing steps (wash buffer); or lacking both dye and probenecid but supplemented with 0.1% BSA for compound dilution steps (dilution buffer). Cells are washed free of excess dye and 60 microliter of wash buffer is added. Stock solutions of test compounds are made up at a concentration of 10 mM in DMSO, and serially diluted in dilution buffer to concentrations required for inhibition dose response curves. After a 10 minute incubation period at 37° C., 10 microliters of each compound dilution are transferred from a compound plate to the plate containing the recombinant cells in the FLIPR instrument according to the manufacturer's instructions. Following basal readings, 10 microliter CXCL10 agonist at a concentration of 20 nM (from Peprotech) is added, again using the FLIPR instrument. Changes in fluorescence are monitored before and after addition of the test compounds. Emission peak values above base level after CXCL10 addition are exported after base line subtraction.
# (§1) The calculated IC50 values may fluctuate depending on the daily assay performance. Fluctuations of this kind are known to those skilled in the art. In the case where IC50 values have been determined several times for the same compound, mean values are given. Data for the FLIPR assay are shown in Table 1 and for the receptor internalization assay (RIA) in Table 2.
# [2] = molecular target: hERG K channel (Homo sapiens (Human), UniProt Q12809); assay: hERG Q-Patch assay; conditions: CHO cells expressing hERG, K+ tail current
# Procedure: Compounds are evaluated for block of the hERG K channel using CHO cells stably expressing the hERG gene (accession number U04270, bSys, Witterswil, Switzerland) and the QPatch robotic platform (Sophion, Ballerup, Denmark) in single-cell mode at room temperature. Cells are grown in culture flasks at 37° C. in 5% CO2, in culture medium (Ham's F-12 Nutrient Mixture, Invitrogen 21765-029) supplemented with 9% (v/v) fetal calf serum, 0.9% Penicillin/Streptomycin (10,000 U/mL, Invitrogen 15140148), 100 μg/mL Hygromycin B (Invitrogen 10687010). When the cells are ˜80% confluent (every 2-3 days), they are either split for further culture or used for electrophysiology. For further culture, cells are detached with 0.25% Trypsin EDTA solution (Invitrogen 25200-056) and a fraction of the cells (10-30%) is reseeded in culture medium. For electrophysiology, on the experimental day, cells are detached with 0.25% Trypsin EDTA solution and all cells are suspended in suspension medium (293 SFM II, Invitrogen 11686-029) supplemented with 20 mM HEPES and 0.04 mg/mL Trypsin inhibitor. Cells are kept in suspension medium at 32-35° C. in the QPatch robot until use, at which time aliquots are transferred to the extracellular solution (in mM: NaCl 150; KCl 4; CaCl2 1.2; MgCl2 1; HEPES 10; pH 7.4 with NaOH) containing 0.3% v/v DMSO and applied to the test plates. K+ currents are measured with the patch-voltage-clamp technique in the whole-cell configuration with the internal solution (in mM: KCl, 140; NaCl, 10; MgCl2, 1; HEPES, 10; EGTA, 5; pH=7.2 with KOH). Currents are low-pass filtered using the internal Bessel filter of the QPatch robot with a cut-off frequency of 2 kHz and are digitized at 10 kHz. K^+ tail currents are produced from a holding voltage of −80 mV by a 500-ms depolarization to +20 mV followed by a 500-ms repolarization to −40 mV; tail current amplitudes are measured at the end of the repolarization to −40 mV. The pulse pattern is repeated every 10 sec during the experiment, baseline K^+ current is measured after 3 min in extracellular solution, test-solution containing compound is then applied, and K^+ current in presence of compound is measured 3 minutes after application to the cells. The respective test-solution is prepared by (1) dissolving the test-compound in pure DMSO, (2) diluting this DMSO solution in extracellular solution, and (3) adding further DMSO, such that the final test-solution has a concentration of either 300 nM or 3000 nM of the test-compound and contains 0.3% v/v DMSO. Compound effects are quantified as % block by dividing the current in presence of compound by the baseline current; two or three experiments are performed for each compound and the final value represents the mean of the results of each experiment.
# [3] = molecular target: CXCR3 (Homo sapiens (Human), UniProt P49682); assay: Receptor internalization assay (RIA) in human whole blood; conditions: final CXCL10 9 nM, CXCR3 surface expression on CD4 positive cells
# Procedure: Stock solutions of test compounds are made up at a concentration of 10 mM in DMSO, and serially diluted in PBS containing 0.5% BSA to concentrations required for inhibition dose response curves. Diluted compounds are then mixed with an equal volume of CXCL10 (Peprotech) diluted in PBS. Anticoagulated venous human whole blood is added to the mixture, which is then incubated in a CO2 incubator at 37° C. to allow for ligand mediated receptor internalization (final CXCL10 concentration is 9 nM). After 30 min, the blood is mixed with fluorescently labeled CXCR3 and CD4 specific antibodies (Becton Dickinson) and incubated on ice for 10 minutes. Samples are then mixed with BD FACS Lysing Solution (Becton Dickinson) in order to eliminate red blood cells. After washing the cells with PBS containing 0.5% BSA, the samples are then analyzed in a flow cytometer (FACS Canto II, Becton Dickinson). For data analysis using FACSDiva software (Becton Dickinson), the mean fluorescence corresponding to CXCR3 cell surface expression was determined on CD4 positive cells.
# as §1
# Sequence of hERG K channel (Q12809 whole entry): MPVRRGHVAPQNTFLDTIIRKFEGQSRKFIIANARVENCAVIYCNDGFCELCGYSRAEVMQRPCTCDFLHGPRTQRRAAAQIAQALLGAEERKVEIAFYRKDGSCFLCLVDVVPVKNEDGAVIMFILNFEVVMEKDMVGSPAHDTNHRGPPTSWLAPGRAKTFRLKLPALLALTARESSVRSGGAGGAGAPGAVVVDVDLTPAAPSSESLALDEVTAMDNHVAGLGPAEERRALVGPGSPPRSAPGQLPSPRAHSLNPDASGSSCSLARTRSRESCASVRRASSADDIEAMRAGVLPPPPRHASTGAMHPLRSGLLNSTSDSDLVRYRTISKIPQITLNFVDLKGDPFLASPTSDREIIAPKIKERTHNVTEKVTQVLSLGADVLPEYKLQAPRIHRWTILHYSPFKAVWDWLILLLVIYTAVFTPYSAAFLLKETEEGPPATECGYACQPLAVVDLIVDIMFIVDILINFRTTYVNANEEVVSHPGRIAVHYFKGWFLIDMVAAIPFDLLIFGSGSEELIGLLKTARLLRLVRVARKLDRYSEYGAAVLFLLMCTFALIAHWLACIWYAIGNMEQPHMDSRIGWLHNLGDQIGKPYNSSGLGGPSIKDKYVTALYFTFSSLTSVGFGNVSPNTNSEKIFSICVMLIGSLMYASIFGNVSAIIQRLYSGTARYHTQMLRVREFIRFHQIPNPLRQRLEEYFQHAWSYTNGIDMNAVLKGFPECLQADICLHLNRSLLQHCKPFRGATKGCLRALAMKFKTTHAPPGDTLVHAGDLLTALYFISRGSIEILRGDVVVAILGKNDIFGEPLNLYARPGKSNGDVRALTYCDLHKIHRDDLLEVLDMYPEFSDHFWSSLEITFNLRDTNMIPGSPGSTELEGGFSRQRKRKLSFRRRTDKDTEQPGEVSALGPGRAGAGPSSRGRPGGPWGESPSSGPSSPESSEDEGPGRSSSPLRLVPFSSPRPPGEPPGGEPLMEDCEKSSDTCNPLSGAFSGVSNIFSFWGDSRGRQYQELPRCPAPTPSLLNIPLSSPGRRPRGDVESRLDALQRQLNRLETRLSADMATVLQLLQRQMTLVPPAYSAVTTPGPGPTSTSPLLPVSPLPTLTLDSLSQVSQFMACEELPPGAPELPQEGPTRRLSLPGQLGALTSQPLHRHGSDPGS
# Sequence of human CXCR3A (P49682 whole entry): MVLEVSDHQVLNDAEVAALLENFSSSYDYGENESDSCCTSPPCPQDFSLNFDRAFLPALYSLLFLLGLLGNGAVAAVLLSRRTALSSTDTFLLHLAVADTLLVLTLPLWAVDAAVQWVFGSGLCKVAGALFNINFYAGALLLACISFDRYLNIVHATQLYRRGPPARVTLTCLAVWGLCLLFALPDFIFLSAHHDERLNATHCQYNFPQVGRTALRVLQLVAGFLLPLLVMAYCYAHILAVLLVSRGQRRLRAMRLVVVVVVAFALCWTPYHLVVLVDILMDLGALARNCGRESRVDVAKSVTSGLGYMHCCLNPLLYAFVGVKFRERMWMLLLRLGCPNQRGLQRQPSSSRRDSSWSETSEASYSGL
# Sequence of CXCR3 (P49682 whole entry): as above
IC50 [1],IC50 [3],SMILES,% block ([2]; concentration 300 nM),% block ([2]; concentration 3000 nM)
0.7 nM,524 nM,"CC(C)c1ncn(CC(=O)N2CCN(c3sc(C(F)(F)F)nc3-c3cnc(C4CC4)nc3)C[C@H]2C)n1 [Example 16, 1-{(R)-4-[4-(2-Cyclopropyl-pyrimidin-5-yl)-2-trifluoromethyl-thiazol-5-yl]-2-methyl-piperazin-1-yl}-2-(3-isopropyl-[1,2,4]triazol-1-yl)-ethanone]",1%,25%
4.6 nM,679 nM,"C[C@@H]1CN(c2sc(C(F)(F)F)nc2-c2cnc(C3CC3)nc2)CCN1C(=O)Cn1cnc(C(C)(C)C)n1 [Example 17, 2-(3-tert-Butyl-[1,2,4]triazol-1-yl)-1-{(R)-4-[4-(2-cyclopropyl-pyrimidin-5-yl)-2-trifluoromethyl-thiazol-5-yl]-2-methyl-piperazin-1-yl}-ethanone]",0%,23%
3.1 nM,1390 nM,"COCc1ncn(CC(=O)N2CCN(c3sc(C(F)(F)F)nc3-c3cnc(C4CC4)nc3)C[C@H]2C)n1 [Example 18, 1-{(R)-4-[4-(2-Cyclopropyl-pyrimidin-5-yl)-2-trifluoromethyl-thiazol-5-yl]-2-methyl-piperazin-1-yl}-2-(3-methoxymethyl-[1,2,4]triazol-1-yl)-ethanone]",10%,22%
1.8 nM,211 nM,"CCOc1ncc(-c2nc(C(F)(F)F)sc2N2CCN(C(=O)Cn3cnc(C)n3)[C@H](C)C2)cn1 [Example 19, 1-{(R)-4-[4-(2-Ethoxy-pyrimidin-5-yl)-2-trifluoromethyl-thiazol-5-yl]-2-methyl-piperazin-1-yl}-2-(3-methyl-[1,2,4]triazol-1-yl)-ethanone]",9%,14%
1.6 nM,189 nM,"Cc1ncn(CC(=O)N2CCN(c3sc(C(F)(F)F)nc3-c3cnc(C(F)(F)F)nc3)C[C@H]2C)n1 [Example 20, 2-(3-Methyl-[1,2,4]triazol-1-yl)-1-{(R)-2-methyl-4-[2-trifluoromethyl-4-(2-trifluoromethyl-pyrimidin-5-yl)-thiazol-5-yl]-piperazin-1-yl}-ethanone]",2%,18%

# The remaining lines, values behind:
SMILES,IC50 [1],IC50 [3],% block ([2]; concentration 300 nM),% block ([2]; concentration 3000 nM)
"CC(C)c1ncn(CC(=O)N2CCN(c3sc(C(F)(F)F)nc3-c3cnc(OC4CCC4)nc3)C[C@H]2C)n1 [Example 14, 1-{(R)-4-[4-(2-Cyclobutoxy-pyrimidin-5-yl)-2-trifluoromethyl-thiazol-5-yl]-2-methyl-piperazin-1-yl}-2-(3-isopropyl-[1,2,4]triazol-1-yl)-ethanone]",1.2 nM,459 nM,4%,27%
"CCc1ncn(CC(=O)N2CCN(c3sc(C(F)(F)F)nc3-c3cnc(C4CC4)nc3)C[C@H]2C)n1 [Example 15, 1-{(R)-4-[4-(2-Cyclopropyl-pyrimidin-5-yl)-2-trifluoromethyl-thiazol-5-yl]-2-methyl-piperazin-1-yl}-2-(3-ethyl-[1,2,4]triazol-1-yl)-ethanone]",2.5 nM,190 nM,3%,27%
"Cc1ncn(CC(=O)N2CCN(c3sc(C(F)(F)F)nc3-c3cnc(C4CC4)nc3)C[C@H]2C)n1 [Example 21, 1-{(R)-4-[4-(2-Cyclopropyl-pyrimidin-5-yl)-2-trifluoromethyl-thiazol-5-yl]-2-methyl-piperazin-1-yl}-2-(3-methyl-[1,2,4]triazol-1-yl)-ethanone]",5.2 nM,462 nM,3%,17%
